US7704995B2 (Exelixis, Inc., priority 2003, dated 2010)

Biological target: T1, Chk1 (Homo sapiens, UniProt O14757)
T1 construct: purchased Upstate Biotechnology
T1 sequence (O14757 1-476): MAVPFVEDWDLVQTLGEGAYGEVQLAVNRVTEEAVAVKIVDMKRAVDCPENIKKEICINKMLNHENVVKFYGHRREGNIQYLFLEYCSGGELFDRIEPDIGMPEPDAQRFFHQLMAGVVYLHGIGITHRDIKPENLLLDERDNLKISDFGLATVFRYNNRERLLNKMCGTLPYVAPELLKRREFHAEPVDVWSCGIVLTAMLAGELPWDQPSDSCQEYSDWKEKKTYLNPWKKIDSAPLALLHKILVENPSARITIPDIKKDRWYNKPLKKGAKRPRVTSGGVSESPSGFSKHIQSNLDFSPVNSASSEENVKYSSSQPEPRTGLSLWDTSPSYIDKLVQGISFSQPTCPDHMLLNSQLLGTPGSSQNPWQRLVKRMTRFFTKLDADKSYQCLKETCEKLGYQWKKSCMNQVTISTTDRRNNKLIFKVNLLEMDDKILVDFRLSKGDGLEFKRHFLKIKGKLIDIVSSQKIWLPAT
Experiment: Chk1 kinase assay: incorporation of γ-33P ATP into immobilized myelin basic protein
Type: biochemical
Details: Table 11, Chk1 only; class symbols A-D; read-out: Chk1 IC50
Outline: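 Incorporation of γ-33P into myelin basic protein coated on plates was scintillation-counted after 1 h at room temperature, duplicate points. Unlabeled ATP was 10 μM with 10 nM Chk1, 30 μM with 20 nM Chk2; buffer Hepes pH 7.6, MgCl2, DTT, 1% DMSO. Output IC50, optionally converted to Ki.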

In the case of `Nc1ncc(-c2cccc(C(=O)N[C@H]3CCc4ccccc43)c2)nc1C(=O)NC1CCCCNC1` (stereo partly drawn) [Example 967, 3-amino-N-azepan-3-yl-6-(3-{[(1S)-2,3-dihydro-1H-inden-1-ylamino]carbonyl}phenyl)pyrazine-2-carboxamide], the IC50 is reported as < 50 nM.
`Nc1ncc(-c2cccc(CN[C@@H]3c4ccccc4C[C@@H]3O)c2)nc1C(=O)N[C@H]1CCCNC1` [Example 968, 3-amino-6-[3-({[(1R,2S)-2-hydroxy-2,3-dihydro-1H-inden-1-yl]amino}methyl)phenyl]-N-[(3S)-piperidin-3-yl]pyrazin-2-carboxamide] was tested, and the IC50 was < 50 nM.
In the case of `Nc1ncc(-c2cccc(C(=O)N[C@H]3c4ccccc4C[C@@H]3O)c2)nc1C(=O)N[C@H]1CCCCN(Cc2ccccc2)C1` [Example 969, 3-amino-6-[3-({[(1S,2S)-2-hydroxy-2,3-dihydro-1H-inden-1-yl]amino}carbonyl)phenyl]-N-[(3S)-1-(phenylmethyl)azepan-3-yl]pyrazine-2-carboxamide], the IC50 is reported as 1000 to 10000 nM.
`Nc1ncc(-c2cccc(C(=O)N[C@H]3c4ccccc4C[C@@H]3O)c2)nc1C(=O)N[C@H]1CCCCNC1` [Example 970, 3-amino-N-[(3S)-azepan-3-yl]-6-[3({[(1S,2S)-2-hydroxy-2,3-dihydro-1H-inden-1-yl]amino}carbonyl)phenyl]pyrazine-2-carboxamide] was tested, and the IC50 was < 50 nM.
`Nc1ncc(-c2cccc(CNC(=O)Nc3ccc(Cl)cc3)c2)nc1C(=O)N[C@H]1CCCNC1` [Example 971, 3-amino-6-{3-[({[(4-chlorophenyl)amino]carbonyl}amino)methyl]phenyl}-N-[(3S)-piperidin-3-yl]pyrazine-2-carboxamide] was tested, and the IC50 was < 50 nM.
Molecule `Nc1ncc(-c2cccc(C(=O)N[C@H]3CCc4ccccc43)c2)nc1C(=O)N[C@H]1CCCCN(Cc2ccccc2)C1` [Example 972, 3-amino-6-(3-{[(1S)-2,3-dihydro-1H-inden-1-ylamino]carbonyl}phenyl)-N-[(3S)-1-(phenylmethyl)azepan-3-yl]pyrazine-2-carboxamide] has an IC50 of 50 to 1000 nM.
For `Nc1ncc(-c2cccc(C(=O)N[C@H]3CCc4ccccc43)c2)nc1C(=O)N[C@H]1CCCCNC1` [Example 973, 3-amino-N-[(3S)-azepan-3-yl]-6-(3{[(1S)-2,3-dihydro-1H-inden-1-ylamino]carbonyl}phenyl)pyrazine-2-carboxamide], the IC50 was < 50 nM.
For `Cc1cccc(-c2cnc(N)c(C(=O)N[C@H]3CCCCNC3)n2)c1` [Example 974, 3-amino-N-[(3S)-azepan-3-yl]-6-(3-methylphenyl)pyrazine-2-carboxamide], the IC50 was < 50 nM.
In the case of `Cc1ccccc1CC(=O)Nc1cccc(-c2cnc(N)c(C(=O)N[C@H]3CCCNC3)n2)c1` [Example 975, 3-amino-6-(3-{[(2-methylphenyl)acetyl]amino}phenyl)-N-[(3S)-piperidin-3-yl]pyrazine-2-carboxamide], the IC50 is reported as < 50 nM.
In the case of `Nc1ncc(-c2cccc(NC(=O)Cc3cccc(C(F)(F)F)c3)c2)nc1C(=O)N[C@H]1CCCNC1` [Example 976, 3-amino-N-[(3S)-piperidin-3-yl]-6-[3-({[3-(trifluoromethyl)phenyl]acetyl}amino)phenyl]pyrazine-2-carboxamide], the IC50 is reported as < 50 nM.
`COc1ccc(CC(=O)Nc2cccc(-c3cnc(N)c(C(=O)N[C@H]4CCCNC4)n3)c2)cc1` [Example 977, 3-amino-6-[3-({[4-(methyloxy)phenyl]acetyl}amino)phenyl]-N-[(3S)-piperidin-3-yl]pyrazine-2-carboxamide] was tested, and the IC50 was < 50 nM.
With `Nc1ncc(-c2cccc(NC(=O)Cc3cccc(F)c3)c2)nc1C(=O)N[C@H]1CCCNC1` [Example 979, 3-amino-6-(3-{[(3-fluorophenyl)acetyl]amino}phenyl)-N-[(3S)-piperidin-3-yl]pyrazine-2-carboxamide] the IC50 was < 50 nM.
For `Nc1ncc(-c2cccc(NC(=O)Cc3cccnc3)c2)nc1C(=O)N[C@H]1CCCNC1` [Example 980, 3-amino-N-[(3S)-piperidin-3-yl]-6-{3-[(pyridin-3-ylacetyl)amino]phenyl}pyrazine-2-carboxamide], the IC50 was < 50 nM.
For `Nc1ncc(-c2cccc(NC(=O)c3cccnc3)c2)nc1C(=O)N[C@H]1CCCNC1` [Example 981, 3-amino-N-[(3S)-piperidin-3-yl]-6-{3-[(pyridin-3-ylcarbonyl)amino]phenyl}pyrazine-2-carboxamide], the IC50 was < 50 nM.
In the case of `Nc1ncc(-c2cccc(NC(=O)Cc3cc(F)ccc3F)c2)nc1C(=O)N[C@H]1CCCNC1` [Example 982, 3-amino-6-(3-{[(2,5-difluorophenyl)acetyl]amino}phenyl)-N-[(3S)-piperidin-3-yl]pyrazine-2-carboxamide], the IC50 is reported as < 50 nM.
In the case of `Nc1ncc(-c2cccc(NC(=O)Cc3ccc(F)cc3)c2)nc1C(=O)N[C@H]1CCCNC1` [Example 983, 3-amino-6-(3-{[(4-fluorophenyl)acetyl]amino}phenyl)-N-[(3S)-piperidin-3-yl]pyrazine-2-carboxamide], the IC50 is reported as < 50 nM.
For `Nc1ncc(-c2cccc(C(=O)NCc3ccc(Cl)c(Cl)c3)c2)nc1C(=O)N[C@H]1CCCNC1` [Example 985, 3-amino-6-[3-({[(3,4-dichlorophenyl)methyl]amino}carbonyl)phenyl]-N-[(3S)-piperidin-3-yl]pyrazine-2-carboxamide], the IC50 was < 50 nM.
With `Nc1ncc(-c2cccc(CNC(=O)c3ccc(-c4ccc([N+](=O)[O-])cc4)o3)c2)nc1C(=O)N[C@H]1CCCNC1` [Example 986, 3-Amino-6-[3-({[5-(4-nitro-phenyl)-furan-2-carbonyl]-amino}-methyl)-phenyl]-pyrazine-2-carboxylic acid (3S)-piperidin-3-ylamide] the IC50 was < 50 nM.
In the case of `Nc1ncc(-c2cccc(CNC(=O)c3ncccc3O)c2)nc1C(=O)N[C@H]1CCCNC1` [Example 987, 3-amino-6-[3-({[(3-hydroxypyridin-2-yl)carbonyl]amino}methyl)phenyl]-N-[(3S)-piperidin-3-yl]pyrazine-2-carboxamide], the IC50 is reported as < 50 nM.
With `Nc1ncc(-c2cccc(CNC(=O)COc3ccc(OC(F)(F)F)cc3)c2)nc1C(=O)N[C@H]1CCCNC1` [Example 988, 3-amino-N-[(3S)-piperidin-3-yl]-6-[3-({[({4-[(trifluoromethyl)oxy]phenyl}oxy)acetyl]amino}methyl)phenyl]pyrazine-2-carboxamide] the IC50 was < 50 nM.
In the case of `Cc1cc(C(=O)NCc2cccc(-c3cnc(N)c(C(=O)N[C@H]4CCCNC4)n3)c2)no1` [Example 989, 3-amino-6-[3-({[(5-methylisoxazol-3-yl)carbonyl]amino}methyl)phenyl]-N-[(3S)-piperidin-3-yl]pyrazine-2-carboxamide], the IC50 is reported as < 50 nM.
For `Nc1ncc(-c2cccc(CNC(=O)c3ccno3)c2)nc1C(=O)N[C@H]1CCCNC1` [Example 990, 3-amino-6-(3-{[(isoxazol-5-ylcarbonyl)amino]methyl}phenyl)-N-[(3S)-piperidin-3-yl]pyrazine-2-carboxamide], the IC50 was < 50 nM.
In the case of `Cc1nnsc1C(=O)NCc1cccc(-c2cnc(N)c(C(=O)N[C@H]3CCCNC3)n2)c1` [Example 991, 3-amino-6-[3-({[(4-methyl-1,2,3-thiadiazol-5-yl)carbonyl]amino}methyl)phenyl]-N-[(3S)-piperidin-3-yl]pyrazine-2-carboxamide], the IC50 is reported as < 50 nM.
`Nc1ncc(-c2cccc(CNC(=O)c3cc(Cl)sc3Cl)c2)nc1C(=O)N[C@H]1CCCNC1` [Example 992, 3-amino-6-[3-({[(2,5-dichloro-3-thienyl)carbonyl]amino}methyl)phenyl]-N-[(3S)-piperidin-3-yl]pyrazine-2-carboxamide] was tested, and the IC50 was < 50 nM.
`Cc1ccc(Cl)cc1CNC(=O)c1cccc(-c2cnc(N)c(C(=O)N[C@H]3CCCNC3)n2)c1` [Example 993, 3-amino-6-[3-({[(5-chloro-2-methylphenyl)methyl]amino}carbonyl)phenyl]-N-[(3S)-piperidin-3-yl]pyrazine-2-carboxamide] was tested, and the IC50 was < 50 nM.
`Nc1ncc(-c2cccc(C(=O)NCc3c(F)cccc3Cl)c2)nc1C(=O)N[C@H]1CCCNC1` [Example 995, 3-amino-6-[3-({[(2-chloro-6-fluorophenyl)methyl]amino}carbonyl)phenyl]-N-[(3S)-piperidin-3-yl]pyrazine-2-carboxamide] was tested, and the IC50 was < 50 nM.
`Nc1ncc(-c2cccc(C(=O)NCc3ccc(Cl)cc3F)c2)nc1C(=O)N[C@H]1CCCCNC1` [Example 996, 3-amino-N-[(3S)-azepan-3-yl]-6-[3-({[(4-chloro-2-fluorophenyl)methyl]amino}carbonyl)phenyl]pyrazine-2-carboxamide] was tested, and the IC50 was < 50 nM.
`Nc1ncc(-c2cccc(C(=O)NCc3cccc(Cl)c3F)c2)nc1C(=O)N[C@H]1CCCNC1` [Example 997, 3-amino-6-[3-({[(3-chloro-2-fluorophenyl)methyl]amino}carbonyl)phenyl]-N-[(3S)-piperidin-3-yl]pyrazine-2-carboxamide] was tested, and the IC50 was < 50 nM.
With `Nc1ncc(-c2cccc(C(=O)NCc3cc(C(F)(F)F)ccc3F)c2)nc1C(=O)N[C@H]1CCCNC1` [Example 998, 3-amino-6-{3-[({[2-fluoro-5-(trifluoromethyl)phenyl]methyl}amino)carbonyl]phenyl}-N-[(3S)-piperidin-3-yl]pyrazine-2-carboxamide] the IC50 was < 50 nM.
For `Nc1ncc(-c2cccc(CNCc3ccc(F)cc3F)c2)nc1C(=O)N[C@H]1CCCNC1` [Example 999, 3-amino-6-[3-({[(2,4-difluorophenyl)methyl]amino}methyl)phenyl]-N-[(3S)-piperidin-3-yl]pyrazine-2-carboxamide], the IC50 was < 50 nM.
